The series can be described thus: solvent given as SMILES.

Molecules are shown by their SMILES.

Consider `CCOC(=O)c1ccccc1-c1c2ccc(=O)cc-2oc2cc(OC(=O)[C@H](CSCc3ccc(C)cc3)NC(=O)OC(C)(C)C)ccc12`, for which the emission maximum was 518 nm (in C1CCOC1), 521 nm (in CC#N), 516 nm (in CCO) and 549 nm (in CS(C)=O).

In turn, `c1ccc(N(c2ccccc2)c2c3ccccc3cc3ccccc23)cc1` gave an emission maximum (in Cc1ccccc1) of 489 nm.

For the compound `CCN(CC)c1cc2oc3cc(N(CC)CC)c(F)cc3c(=O)c2cc1F`, the emission maximum (in CCO) is 452 nm.

For the compound `Cc1cc(=O)oc2cc(O)ccc12`, for the setting “in CCO”, the emission maximum was determined as 380 nm.

In turn, `CSc1ccc2c(c1)N(CCCN(C)C)c1ccccc1S2` registered an emission maximum (in CC#N) of 460 nm, an emission maximum (in CO) of 455 nm and an emission maximum (in O) of 475 nm.

In turn, `CCCCN1\C(=C/C=C/C=C/C2=[N+](CCCC)c3ccc4ccccc4c3C2(C)C)C(C)(C)c2c1ccc1ccccc21` registered an emission maximum (in C1CCOC1) of 710 nm; an emission maximum (in CC#N) of 698 nm; an emission maximum (in CC(C)=O) of 701 nm; an emission maximum (in CCO) of 704 nm; an emission maximum (in CN(C)C=O) of 705 nm; an emission maximum (in CO) of 701 nm. Also, the emission maximum (in CS(C)=O) stood at 709 nm and the emission maximum (in ClCCl) is listed as 713 nm.

With `O=[N+]([O-])c1ccc(S(=O)(=O)Nc2ccc(C#Cc3ccc4ccc5ccc(C#Cc6ccc(NS(=O)(=O)c7ccc([N+](=O)[O-])cc7[N+](=O)[O-])cc6)c6ccc3c4c56)cc2)c([N+](=O)[O-])c1`, the emission maximum (in CO) was found to be 539 nm.

On to `CCCCCCn1c2cc(/C=C/c3cccs3)ccc2c2ccc(/C=C/c3cccs3)cc21`, for which the emission maximum (in ClC(Cl)Cl) is 427.35 nm.

For `Cc1nc(-c2ccccc2)c2ccccn12`, the emission maximum (in C1CCCCC1) was 475 nm; the emission maximum (in CC#N) came to 467 nm; the emission maximum (in CO) is on record as 473 nm; the emission maximum (in ClCCl) is 485 nm; the emission maximum (in O) was found to be 470 nm.

With `COc1ccc(-n2nc(C#N)c(N3CCCC3)n2)cc1`, the emission maximum runs as follows: (in CC#N) 418 nm; (in CCCCCC) 389 nm; (in CCO) 415 nm; (in CN(C)C=O) 418 nm; (in CO) 416 nm; (in ClC(Cl)Cl) 406 nm.

The compound `CCn1c2cc(-c3cccs3)ccc2c2ccc(-c3cccs3)cc21` had an emission maximum (in ClCCl) of 391 nm.

As to `CCCCOc1ccc(/C=C/C2=[N+]3C(=C(c4ccc(I)cc4)c4c(/C=C/c5ccc(N(C)C)cc5)cc(/C=C/c5ccc(OC)cc5)n4[B-]3(F)F)C(/C=C/c3ccc(OCCOCCOC)cc3)=C2)cc1`, under “in C1COCCO1”, the emission maximum was determined as 714 nm.

Take `CC1(C)c2ccccc2-c2cc3c(cc21)N(c1ccc(-c2nc(-c4ccc(N5c6ccccc6C(c6ccccc6)(c6ccccc6)c6cc7c(cc65)C(C)(C)c5ccccc5-7)cc4)nc(-c4ccc(N5c6ccccc6C(c6ccccc6)(c6ccccc6)c6cc7c(cc65)C(C)(C)c5ccccc5-7)cc4)n2)cc1)c1ccccc1C3(c1ccccc1)c1ccccc1`: for the setting “in Cc1ccccc1”, the emission maximum amounted to 515 nm.

In the case of `COc1ccc(N(c2ccc(OC)cc2)c2ccc(-c3ccc4c(c3)C(=O)c3ccccc3C4=O)cc2)cc1`, the emission maximum by setting is: (in CCCCCC) 571 nm; (in CCOCC) 720 nm; (in Cc1ccccc1) 679 nm; (in ClC(Cl)(Cl)Cl) 646 nm.

Take `CCB1c2ccccc2Nc2ccccc21`: the emission maximum (in ClCCl) came to 494 nm.

For the compound `CC(=O)OC[C@H]1O[C@@H](OCC#Cc2ccc(C3=C4C(C)=CC(/C=C/c5ccc(N(C)C)cc5)=[N+]4[B-](F)(F)n4c(/C=C/c5ccc(N(C)C)cc5)cc(C)c43)cc2)[C@H](OC(C)=O)C(OC(C)=O)[C@@H]1OC(C)=O` (stereo partly specified), under “in CC#N”, the emission maximum is given as 769 nm.

`COc1cc(OC)cc(C2=CC(c3ccccc3)=C(c3ccccc3)C2)c1` had an emission maximum (in ClCCl) of 449 nm.
